Molecules are shown by their SMILES. pIC50: −log10 of the molar value.

One may read the pIC50 as −log10 of the IC50, conventionally taken in molar units.

Assay [1] addresses T1, recombinant human CL receptor/RAMP1 (CGRP receptor) (Homo sapiens (Human), UniProt O60894+Q16602). The experiment in a line: Recombinant receptor functional assay (Assay B), cAMP HTRF. It counts as cell-based. The settings on record: Assay B: HEK 293 cells, 2,000 cells/well, human α-CGRP 1.2 nM, cAMP inflection point. On the procedure:
RECOMBINANT RECEPTOR: Human CL receptor (Genbank accession number L76380) was subcloned into the expression vector pIREShyg2 (BD Biosciences Clontech) as a 5′NheI and 3′ PmeI fragment. Human RAMP1 (Genbank accession number AJ001014) was subcloned into the expression vector pIRESpuro2 (BD Biosciences Clontech) as a 5′NheI and 3′NotI fragment. HEK 293 cells (human embryonic kidney cells; ATCC #CRL-1573) were cultured in DMEM with 4.5 g/L glucose, 1 mM sodium pyruvate and 2 mM glutamine supplemented with 10% fetal bovine serum (FBS), 100 units/mL penicillin and […] streptomycin, and maintained at 37° C. and 95% humidity. Cells were subcultured by treatment with 0.25% trypsin with 0.1% EDTA in HBSS. Stable cell line generation was accomplished by co-transfecting 10 μg of DNA with 30 μg Lipofectamine 2000 (Invitrogen) in 75 cm^2 flasks. CL receptor and RAMP1 expression constructs were co-transfected in equal amounts. Twenty-four hours after transfection the cells were diluted and selective medium (growth medium+300 μg/mL hygromycin and 1 μg/mL puromycin) was added the following day. A clonal cell line was generated by single cell deposition utilizing a FACS Vantage SE (Becton Dickinson). Growth medium was adjusted to 150 μg/mL hygromycin and 0.5 μg/mL puromycin for cell propagation.
RECOMBINANT RECEPTOR FUNCTIONAL ASSAY (Assay B): Cells were resuspended in DMEM/F12 (Hyclone) supplemented with 1 g/L BSA and 300 μM isobutyl-methylxanthine. Cells were then plated in a 384-well plate (Proxiplate Plus 384; 509052761; Perkin-Elmer) at a density of 2,000 cells/well and incubated with antagonist for 30 min at 37° C. Human α-CGRP was then added to the cells at a final concentration of 1.2 nM and incubated an additional 20 min at 37° C. Following agonist stimulation, the cells were processed for cAMP determination using the two-step procedure according to the manufacturer's recommended protocol (HTRF cAMP dynamic 2 assay kit; 62AM4PEC; Cisbio). Raw data were transformed into concentration of cAMP using a standard curve then dose response curves were plotted and inflection point (IP) values were determined
In general terms: TR-FRET usually uses a lanthanide donor and a delayed reading to cut background.

Assay [2] deals with T1, recombinant human CL receptor/RAMP1 (CGRP receptor). The experiment in a line: Recombinant receptor functional assay (Assay C), cAMP HTRF. The format is cell-based. The settings on record: Assay C: HEK 293 cells, 3,500 cells/well, human α-CGRP 1 nM, cAMP inflection point. The method, then: Human RAMP1 (Genbank accession number AJ001014) was subcloned into the expression vector pIRESpuro2 (BD Biosciences Clontech) as a 5′NheI and 3′NotI fragment. […] Cells were subcultured by treatment with 0.25% trypsin with 0.1% EDTA in HBSS. Stable cell line generation was accomplished by co-transfecting 10 μg of DNA with 30 μg Lipofectamine 2000 (Invitrogen) in 75 cm^2 flasks. CL receptor and RAMP1 expression constructs were co-transfected in equal amounts. Twenty-four hours after transfection the cells were diluted and selective medium (growth medium+300 μg/mL hygromycin and 1 μg/mL puromycin) was added the following day. A clonal cell line was generated by single cell deposition utilizing a FACS Vantage SE (Becton Dickinson). Growth medium was adjusted to 150 μg/mL hygromycin and 0.5 μg/mL puromycin for cell propagation.

T1 sequence (Q16602 23-461): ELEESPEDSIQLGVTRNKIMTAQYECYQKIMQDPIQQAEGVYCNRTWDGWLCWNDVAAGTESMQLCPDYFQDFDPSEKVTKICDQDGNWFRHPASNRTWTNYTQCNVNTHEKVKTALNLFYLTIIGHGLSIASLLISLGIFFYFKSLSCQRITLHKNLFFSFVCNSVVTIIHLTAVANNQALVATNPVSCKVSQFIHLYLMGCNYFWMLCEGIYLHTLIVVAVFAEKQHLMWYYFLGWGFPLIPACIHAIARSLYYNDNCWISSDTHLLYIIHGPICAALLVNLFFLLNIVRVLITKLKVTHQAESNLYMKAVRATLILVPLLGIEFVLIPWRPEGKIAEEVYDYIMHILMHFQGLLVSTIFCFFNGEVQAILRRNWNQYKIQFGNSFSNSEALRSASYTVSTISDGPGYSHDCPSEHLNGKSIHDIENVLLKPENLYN
T1 sequence (O60894 27-148): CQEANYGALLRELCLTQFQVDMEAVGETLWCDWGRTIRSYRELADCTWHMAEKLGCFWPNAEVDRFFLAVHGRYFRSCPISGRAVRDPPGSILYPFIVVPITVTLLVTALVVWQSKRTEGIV

Take `O=C(NC1CC(c2ccccc2)Cc2cccnc21)c1cnc2c(c1)C[C@@]1(C2)C(=O)Nc2ncccc21` (single isomer, unassigned; isomer a) [5 isomer A]: in assay [1], the pIC50 is 7.66.

In the case of `O=C(NC1CC(c2ccccc2)Cc2cccnc21)c1cnc2c(c1)C[C@@]1(C2)C(=O)Nc2ncccc21` (single isomer, unassigned; isomer a) [6 isomer A], in assay [1], the pIC50 was 7.11.

For the compound `O=C(NC1COC(c2ccccc2)Cc2cccnc21)c1cnc2c(c1)C[C@@]1(C2)C(=O)Nc2ncccc21` (single isomer, unassigned; isomer a) [9 isomer A], the pIC50 in assay [2] is 5.72.

As to `O=C(NC1CC(c2ccccc2)Cc2cccnc21)c1cnc2c(c1)C[C@]1(C2)C(=O)Nc2ncccc21` (single isomer, unassigned; isomer b) [5 isomer B], the pIC50 in assay [1] was 5.34.

As to `O=C(NC1CC(c2ccccc2)Cc2cccnc21)c1cnc2c(c1)C[C@]1(C2)C(=O)Nc2ncccc21` (single isomer, unassigned; isomer b) [6 isomer B], the pIC50 in assay [1] is 6.82.

Take `O=C(NC1COC(c2ccccc2)Cc2cccnc21)c1cnc2c(c1)C[C@@]1(C2)C(=O)Nc2ncccc21` (single isomer, unassigned; isomer b) [9 isomer B]: the pIC50 in assay [2] was 5.96.

Take `O=C(NC1COC(c2ccccc2)Cc2cccnc21)c1cnc2c(c1)C[C@@]1(C2)C(=O)Nc2ncccc21` (single isomer, unassigned; isomer c) [9 isomer C]: the pIC50 in assay [2] was 5.96.

In the case of `N[C@@H]1c2cccnc2[C@H](NC(=O)c2cnc3c(c2)C[C@@]2(C3)C(=O)Nc3ncccc32)CC[C@H]1c1cccc(F)c1F` [Example 1, (6S)—N-[(5S,6S,9R)-5-Amino-6-(2,3-difluorophenyl)-6,7,8,9-tetrahydro-5H-cyclohepta[b]pyridin-9-yl]-2′-oxo-1′,2′,5,7-tetrahydrospiro[cyclopenta[b]pyridine-6,3′-pyrrolo[2,3-b]pyridine]-3-carboxamide], the pIC50 in assay [1] is 9.03.

For the compound `N[C@@H]1c2cccnc2[C@@H](NC(=O)c2cnc3c(c2)C[C@@]2(C3)C(=O)Nc3ncccc32)CC[C@H]1c1cccc(F)c1F` [Example 2, (6S)—N-[(5S,6S,9S)-5-Amino-6-(2,3-difluorophenyl)-6,7,8,9-tetrahydro-5H-cyclohepta[b]pyridin-9-yl]-2′-oxo-1′,2′,5,7-tetrahydrospiro[cyclopenta[b]pyridine-6,3′-pyrrolo[2,3-b]pyridine]-3-carboxamide], the pIC50 in assay [1] is 6.54.

`N[C@H]1c2cccnc2[C@H](NC(=O)c2cnc3c(c2)C[C@@]2(C3)C(=O)Nc3ncccc32)CC[C@H]1c1cccc(F)c1F` [Example 3, (6S)—N-[(5R,6S,9R)-5-Amino-6-(2,3-difluorophenyl)-6,7,8,9-tetrahydro-5H-cyclohepta[b]pyridin-9-yl]-2′-oxo-1′,2′,5,7-tetrahydrospiro[cyclopenta[b]pyridine-6,3′-pyrrolo[2,3-b]pyridine]-3-carboxamide]: the pIC50 in assay [1] is 8.20.

Take `N[C@H]1c2cccnc2[C@@H](NC(=O)c2cnc3c(c2)C[C@@]2(C3)C(=O)Nc3ncccc32)CC[C@H]1c1cccc(F)c1F` [Example 4, (6S)—N-[(5R,6S,9S)-5-Amino-6-(2,3-difluorophenyl)-6,7,8,9-tetrahydro-5H-cyclohepta[b]pyridin-9-yl]-2′-oxo-1′,2′,5,7-tetrahydrospiro[cyclopenta[b]pyridine-6,3′-pyrrolo[2,3-b]pyridine]-3-carboxamide]: in assay [1], the negative-log IC50 (pIC50) is 7.19.

In the case of `O=C(N[C@H]1CC[C@H](c2cccc(F)c2F)Cc2cccnc21)c1cnc2c(c1)C[C@@]1(C2)C(=O)Nc2ncccc21` [Example 7A, (S)—N-((6S,9S)-6-(2,3-difluorophenyl)-6,7,8,9-tetrahydro-5H-cyclohepta[b]pyridin-9-yl)-2′-oxo-1′,2′,5,7-tetrahydrospiro[cyclopenta[b]pyridine-6,3′-pyrrolo[2,3-b]pyridine]-3-carboxamide], the pIC50 in assay [1] is 6.42.

`O=C(N[C@@H]1CC[C@@H](c2cccc(F)c2F)Cc2cccnc21)c1cnc2c(c1)C[C@@]1(C2)C(=O)Nc2ncccc21` [Example 7B, (S)—N-((6R,9R)-6-(2,3-difluorophenyl)-6,7,8,9-tetrahydro-5H-cyclohepta[b]pyridin-9-yl)-2′-oxo-1′,2′,5,7-tetrahydrospiro[cyclopenta[b]pyridine-6,3′-pyrrolo[2,3-b]pyridine]-3-carboxamide]: the pIC50 in assay [1] was 8.35.
